Data from patent US6949682B2, “Cinnamaldehyde derivatives inhibiting growth of tumor cell and regulating cell cycle, preparations and pharmaceutical compositions thereof” (Korea Research Institute of Bioscience and Biotechnology, priority 2003, dated 2005).

Key:
HCT116 colon cancer cell [1] = assay: Growth inhibition of HCT116 colon cancer cell (GI50); type: cell-based, human; conditions: Homo sapiens, HCT-116; concentration at which growth of HCT116 colon cancer cell was inhibited to the 50%
Protocol: (§1) Colon cancer cell of human SW620(ATCC) or HCT116 (ATCC) was transferred to T25 flask(culture 7.5 ml) by RPMI1640 (Gibco/BR) medium or DMEM medium (Gibco/BR) containing 10% FBS (fetal bovine serum), respectively. Thereafter the cell was incubated for 12 hours at 37° C. in incubator. After the cell was incubated for 12 hours, 7.5 μl of DMSO was added to a culture used as control group, for the final concentration to be 0.1%. In order to use in experiment, samples of various concentrations were prepared by dissolving the cinnamaldehyde derivatives of the present invention in DMSO. 7.5 μl of the prepared samples was added to a culture used as experimental group. Cell of control or experimental group was incubated for 48 hours.
(§2) HCT116 GI50 (μM) and SW620 GI50 (μM) mean to be the concentrations at which growth of HCT116 and SW620 colon cancer cell was inhibited to the 50%, respectively.

SW620 colon cancer cell [2] = assay: Growth inhibition of SW620 colon cancer cell (GI50); type: cell-based, human; conditions: Homo sapiens, SW-620; concentration at which growth of SW620 colon cancer cell was inhibited to the 50%
Protocol: as §1, §2

SW620 colon cancer cell [3] = assay: Cell cycle analysis (Experimental Example 1), SW620; type: cell-based, human; conditions: SW620, 1 μM, 48 hours, percentage of cells in G2/M
Protocol: as §1
(§3) For cell cycle analysis, incubated cell was removed from medium. Thereafter the incubated cell was separated from the flask by trypsin. Thus the cell was centrifuged at 300 g for 5 min. The cell was washed with phosphate buffer solution (PBS) to remove the residue medium from the cell. 3 ml of ethanol (70%) was added to the cell. The cell was fixed by being positioned at −20° C. for 12 hours. The fixed cell was centrifuged at 300 g for 3 min and washed with the cold PBS for two times to remove residual ethanol. The cell solution prepared by adding 500 μl of PBS to the cell was well mixed to produce the homogeneous state. 100 μg/ml RNase A 50 μl was added to the cell solution, thereafter the resulting cell solution was positioned at 37° C. for 30 min. The chromosomal DNA was stained by further adding 1 mg/ml propidium iodide (soluble in PBS) thereto.
(§4) Distribution of cell cycle of 20,000 stained cells were measured by using Becton-Dickinson FACS caliber (San Jose, Calif., USA).

HCT116 colon cancer cell [4] = assay: Cell cycle analysis (Experimental Example 1), HCT116; type: cell-based, human; conditions: HCT116, 1 μM, 48 hours, percentage of cells in G2/M
Protocol: as §1, §3, §4

HCT116 colon cancer cell [5] = assay: Cell cycle distribution (Experimental Example 2), HCT116; type: cell-based, human; conditions: for Amount of cell (%) G0-G1 / Amount of cell (%) G2-M / Amount of cell (%) S: HCT116, 1 μM, 48 hours; for Holding of cancer cell in stage G2/M (in words): HCT116 and SW620, 1 μM, summary of table 3
Protocol: (§5) SW620 or HCT116 as colon cancer cell was inoculated in 100 mm plate to the amount of 2×10^6 cells. Then, cinnamaldehyde derivative of the present invention (compound 16 or compound 35) was added to the plate in the concentration of 1 μM. Thereafter, the colon cancer cell was incubated for 48 hours. Trypsin was added to the plate, to separate the colon cancer cell from the plate. And 5 ml of PBS (phosphate buffer solution) was added to the plate, to prepare the cell mixture. The cell mixture was centrifuged at 1,500 rpm for 5 min for two times, to remove trypsin from the mixture. The residue was washed with PBS for two times, thus the resulting supernatant was discarded. 1 ml of PBS and 3˜5 ml of cool ethanol(70%) was added to the resulting residue. The cell was fixed by being positioned at −20° C. for 12 hours. The fixed cell was centrifuged at 1,500 rpm for 5 min and washed with the cool PBS for two times to remove residual ethanol. RNase(10 μg/ml) was added to the fixed cell, to remove RNA. And DNA of the fixed cell was dyed with PI(propidium iodide, 50 μg/ml). After the fixed cell was positioned at 37° C. for 30 min, cell cycles of 20,000 cells were measured by using Becton-Dickinson FACS caliber (San Jose, Calif., USA).
(§6) For control group, the same procedure was accomplished except that DMSO was used in place of the cinnamaldehyde derivative.

SW620 colon cancer cell [6] = assay: Cell cycle distribution (Experimental Example 2), SW620; type: cell-based, human; conditions: SW620, 1 μM, 48 hours
Protocol: as §5, §6

Row | GI50 (HCT116 colon cancer cell [1]) | GI50 (SW620 colon cancer cell [2]) | melting point | Structure (SMILES) | G2/M at 1 μM(%) SW620 (SW620 colon cancer cell [3]) | G2/M at 1 μM(%) HCT116 (HCT116 colon cancer cell [4]) | Amount of cell (%) G0-G1 (HCT116 colon cancer cell [5]) | Amount of cell (%) G2-M (HCT116 colon cancer cell [5]) | Amount of cell (%) S (HCT116 colon cancer cell [5]) | Holding of cancer cell in stage G2/M (in words) (HCT116 colon cancer cell [5]) | Amount of cell (%) G0-G1 (SW620 colon cancer cell [6]) | Amount of cell (%) G2-M (SW620 colon cancer cell [6]) | Amount of cell (%) S (SW620 colon cancer cell [6])
1 | 1.41 µM | 0.63 µM | 120 to 121 °C | O=CC(=Cc1ccccc1OCc1ccccc1)C(C=O)=Cc1ccccc1OCc1ccccc1 [Compound 16, 2,3-bis-(2-benzyloxy-benzylidene)succinaldehyde] | 80% | 43% | 22.36% | 43.29% | 34.35% | held a cancer cell in the stage G2/M | 6.64% | 80.21% | 13.15%
2 | 5.23 µM | 0.72 µM | 218 to 220 °C | CN1CCN(c2ccccc2/C=C(C=O)/C(C=O)=C/c2ccccc2N2CCN(C)CC2)CC1 [Compound 35, 2,3-bis-(2-(N-methylpiperazine)benzylidene)succinaldehyde] | 79% | 52% | 15.52% | 52.11% | 32.37% | held a cancer cell in the stage G2/M | 8.74% | 78.53% | 12.73%
3 | 11.9 µM | 5.97 µM | 207 to 208 °C | O=CC(=Cc1ccc(OC(=O)c2ccccc2)cc1)C(C=O)=Cc1ccc(OC(=O)c2ccccc2)cc1 [Compound 32, 2,3-bis-(4-benzoyloxy-benzylidene)succinaldehyde] | 52% | 56% | – | – | – | – | – | – | –
4 | 0.91 µM | 0.91 µM | 177 to 178 °C | O=CC(=Cc1ccccc1Cl)C(C=O)=Cc1ccccc1Cl [Compound 3, 2,3-bis-(2-chlorobenzylidene)succinaldehyde] | 47% | 40% | – | – | – | – | – | – | –
5 | 3.8 µM | 2.2 µM | 208 to 209 °C | O=CC(=Cc1ccc(OCc2ccc(Cl)cc2)cc1)C(C=O)=Cc1ccc(OCc2ccc(Cl)cc2)cc1 [Compound 38, 2,3-bis-(4-(4-chlorobenzyloxy)-benzylidene)succinaldehyde] | 53% | 44% | – | – | – | – | – | – | –
6 | 7.5 µM | 6.3 µM | 193 to 194 °C | O=CC(=Cc1cccc(OCc2ccc(Cl)cc2)c1)C(C=O)=Cc1cccc(OCc2ccc(Cl)cc2)c1 [Compound 36, 2,3-bis-(3-(4-chlorobenzyloxy)-benzylidene)succinaldehyde] | 42% | 41% | – | – | – | – | – | – | –
7 | 30.4 µM | 16.7 µM | 223 to 225 °C | O=CC(=Cc1ccc(OC(=O)c2ccc(Br)cc2)cc1)C(C=O)=Cc1ccc(OC(=O)c2ccc(Br)cc2)cc1 [Compound 34, 2,3-bis-(4-(4-bromobenzoyloxy)benzylidene)succinaldehyde] | 62% | 60% | – | – | – | – | – | – | –
8 | 7.59 µM | 3.58 µM | 126 to 127 °C | O=CC(=Cc1cccc(OCc2ccccc2)c1)C(C=O)=Cc1cccc(OCc2ccccc2)c1 [Compound 22, 2,3-bis-(3-benzyloxy-benzylidene)succinaldehyde] | 65% | 68% | – | – | – | – | – | – | –
9 | 3.7 µM | 6.8 µM | 218 to 220 °C | COc1ccc(COc2ccc(C=C(C=O)C(C=O)=Cc3ccc(OCc4ccc(OC)cc4)cc3)cc2)cc1 [Compound 39, 2,3-bis-(4-(4-methoxybenzyloxy)-benzylidene)succinaldehyde] | 48% | 38% | – | – | – | – | – | – | –
10 | 3.72 µM | 1.55 µM | 163 to 164 °C | COc1ccccc1C=C(C=O)C(C=O)=Cc1ccccc1OC [Compound 5, 2,3-bis-(2-methoxybenzylidene)succinaldehyde] | 50% | 55% | – | – | – | – | – | – | –
11 | 3.4 µM | 5.1 µM | 117 to 119 °C | COc1ccc(COc2cccc(C=C(C=O)C(C=O)=Cc3cccc(OCc4ccc(OC)cc4)c3)c2)cc1 [Compound 37, 2,3-bis-(3-(4-methoxybenzyloxy)-benzylidene)succinaldehyde] | 46% | 35% | – | – | – | – | – | – | –
12 | 2.74 µM | 6.74 µM | 93 to 94 °C | CCCOc1cccc(/C=C(C=O)/C(C=O)=C/c2cccc(OCCC)c2)c1 [Compound 20, 2,3-bis-(3-propyloxy-benzylidene)succinaldehyde] | 76% | 72% | – | – | – | – | – | – | –
13 | 5.28 µM | 2.64 µM | 117 to 118 °C | C=CCOc1ccccc1C=C(C=O)C(C=O)=Cc1ccccc1OCC=C [Compound 14, 2,3-bis-(2-allyloxy-benzylidene)succinaldehyde] | 76% | 72% | – | – | – | – | – | – | –

Row | Structure (SMILES) | GI50 (HCT116 colon cancer cell [1]) | GI50 (SW620 colon cancer cell [2]) | melting point | G2/M at 1 μM(%) SW620 (SW620 colon cancer cell [3]) | G2/M at 1 μM(%) HCT116 (HCT116 colon cancer cell [4]) | Amount of cell (%) G0-G1 (HCT116 colon cancer cell [5]) | Amount of cell (%) G2-M (HCT116 colon cancer cell [5]) | Amount of cell (%) S (HCT116 colon cancer cell [5]) | Holding of cancer cell in stage G2/M (in words) (HCT116 colon cancer cell [5]) | Amount of cell (%) G0-G1 (SW620 colon cancer cell [6]) | Amount of cell (%) G2-M (SW620 colon cancer cell [6]) | Amount of cell (%) S (SW620 colon cancer cell [6])
14 | O=CC(=C\c1ccccc1)/C(C=O)=C/c1ccccc1 [Compound 1, 2,3-bis-benzylidenesuccinaldehyde] | 8.39 µM | 1.52 µM | 150 to 151 °C | 45% | 42% | – | – | – | – | – | – | –
